Biological target: T1, P70S6K (T412E mutant, Millipore) (Homo sapiens, UniProt P23443, T412E)
T1 construct: purchased Millipore
Experiment: p70S6K enzyme assay
Assay type: biochemical
Conditions: Table 1; 3 nM P70S6K, 24 μM ATP, 90 min at 25° C.; read-out: p70S6K inhibition (IC50)
Procedure, shortened: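 T412E-mutant P70S6K (3 nM) with 24 μM ATP and 1 μM FITC-AHA-AKRRRLSSLRA-OH S6-derived peptide in 100 mM Hepes pH 7.5, 5 mM MgCl2, 1 mM DTT, 0.015% Brij; 90 min at 25° C, EDTA stop. Phosphorylated product and substrate peptide separated and quantified by microfluidic capillary electrophoresis (Caliper LabChip 3000).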

T1 sequence (P23443 whole entry T412E): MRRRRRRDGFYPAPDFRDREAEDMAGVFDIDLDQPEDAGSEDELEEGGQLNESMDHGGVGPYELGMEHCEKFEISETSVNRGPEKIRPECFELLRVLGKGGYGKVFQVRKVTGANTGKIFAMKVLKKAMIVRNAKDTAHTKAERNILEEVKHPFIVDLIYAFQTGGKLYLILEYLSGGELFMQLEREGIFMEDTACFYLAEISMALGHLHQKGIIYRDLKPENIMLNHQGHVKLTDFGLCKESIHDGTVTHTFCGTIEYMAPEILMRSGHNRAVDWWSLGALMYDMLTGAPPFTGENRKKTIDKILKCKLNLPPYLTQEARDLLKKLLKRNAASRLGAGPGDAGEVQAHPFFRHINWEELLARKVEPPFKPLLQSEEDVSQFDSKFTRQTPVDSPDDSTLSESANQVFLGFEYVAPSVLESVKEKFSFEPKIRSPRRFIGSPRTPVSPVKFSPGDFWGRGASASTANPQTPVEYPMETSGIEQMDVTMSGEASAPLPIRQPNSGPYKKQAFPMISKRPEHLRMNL

IC50 [nM]	SMILES
100 to 1000	CC(C)(C)OC(=O)N1CCCC(NC(=O)c2sccc2Nc2ncnc3[nH]ccc23)C1 (stereo not shown) [Example 154, 3-{[3-(7H-Pyrrolo[2,3-d]pyrimidin-4-ylamino)-thiophene-2-carbonyl]-amino}-piperidine-1-carboxylic acid tert-butyl ester]
< 100	O=C(NCCc1cccc(Cl)c1)c1sccc1Nc1ncnc2[nH]ccc12 [Example 144, 3-(7H-Pyrrolo[2,3-d]pyrimidin-4-ylamino)-thiophene-2-carboxylic acid [2-(3-chloro-phenyl)-ethyl]-amide]
< 100	O=C(NCc1cccc(Cl)c1)c1occc1Nc1ncnc2[nH]ccc12 [Example 141, 3-(7H-Pyrrolo[2,3-d]pyrimidin-4-ylamino)-furan-2-carboxylic acid 3-chloro-benzylamide]
< 100	Cc1cc(Nc2ncnc3[nH]ccc23)c(C(=O)NCc2cccc(Cl)c2)s1 [Example 152, 5-Methyl-3-(7H-pyrrolo[2,3-d]pyrimidin-4-ylamino)-thiophene-2-carboxylic acid 3-chloro-benzylamide]

Same assay, conditions: class symbol; 3 nM P70S6K, 24 μM ATP; read-out: IC50 (p70S6K)

IC50 [nM]	SMILES
< 100	O=C(NC1CCNC1)c1ccsc1Nc1ccnc2[nH]ccc12 (stereo not shown) [Example 103, 2-(1H-Pyrrolo[2,3-b]pyridin-4-ylamino)-thiophene-3-carboxylic acid pyrrolidin-3-ylamide]
< 100	O=C(NCCc1cccc(F)c1)c1sccc1Nc1ncnc2[nH]ccc12 [Example 175, 3-(7H-Pyrrolo[2,3-d]pyrimidin-4-ylamino)-thiophene-2-carboxylic acid [2-(3-fluorophenyl)-ethyl]-amide]
< 100	O=C(NCCN(Cc1ccoc1)Cc1ccoc1)c1sccc1Nc1ccnc2[nH]ccc12 [Example 47, 3-(1H-Pyrrolo[2,3-b]pyridin-4-ylamino)-thiophene-2-carboxylic acid [2-(bis-furan-3-ylmethyl-amino)-ethyl]-amide]
100 to 1000	COC(=O)C(CO)NC(=O)c1sccc1Nc1ccnc2[nH]ccc12 (stereo not shown) [Example 85, 3-Hydroxy-2-{[3-(1H-pyrrolo[2,3-b]pyridin-4-ylamino)-thiophene-2-carbonyl]-amino}-propionic acid methyl ester]
< 100	O=C(N[C@H](CO)c1ccccc1)c1sccc1Nc1ccnc2[nH]ccc12 [Example 44, S-[3-(1H-Pyrrolo[2,3-b]pyridin-4-ylamino)-thiophene-2-carboxylic acid (2-hydroxy-1-phenyl-ethyl)-amide]]
< 100	O=C(NCCC1=CCCCC1)c1sccc1Nc1ccnc2[nH]ccc12 [Example 13, 3-(1H-Pyrrolo[2,3-b]pyridin-4-ylamino)-thiophene-2-carboxylic acid (2-cyclohex-1-enyl-ethyl)-amide]
100 to 1000	O=C(NCc1cccnc1)c1sccc1Nc1ccnc2[nH]ccc12 [Example 8, 3-(1H-Pyrrolo[2,3-b]pyridin-4-ylamino)-thiophene-2-carboxylic acid (pyridin-3-ylmethyl)-amide]
< 100	CN1CCN(c2cc(C(=O)Nc3cccc(CNC(=O)c4sccc4Nc4ccnc5[nH]ccc45)c3)ccn2)CC1 [Example 163, 2-(4-Methyl-piperazin-1-yl)-N-[3-({[3-(1H-pyrrolo[2,3-b]pyridin-4-ylamino)-thiophene-2-carbonyl]-amino}-methyl)-phenyl]-isonicotinamide]
< 100	COc1ccc(C(CN)NC(=O)c2sccc2Nc2ccnc3[nH]ccc23)cc1OC (stereo not shown) [Example 113, 3-(1H-Pyrrolo[2,3-b]pyridin-4-ylamino)-thiophene-2-carboxylic acid [2-amino-1-(3,4-dimethoxy-phenyl)-ethyl]-amide]
< 100	CNCC(NC(=O)c1sccc1Nc1ccnc2[nH]ccc12)c1cccc(F)c1 (stereo not shown) [Example 167, 3-(1H-Pyrrolo[2,3-b]pyridin-4-ylamino)-thiophene-2-carboxylic acid [1-(3-fluoro-phenyl)-2-methylamino-ethyl]-amide]
100 to 1000	CC(C)(C)OC(=O)N1CCCC(NC(=O)c2sccc2Nc2ccnc3[nH]ccc23)C1 (stereo not shown) [Example 91, 3-{[3-(1H-Pyrrolo[2,3-b]pyridin-4-ylamino)-thiophene-2-carbonyl]-amino}-piperidine-1-carboxylic acid tert-butyl ester]
< 100	O=C(NCCNCc1ccccc1)c1sccc1Nc1ncnc2[nH]ccc12 [Example 183, 3-(7H-Pyrrolo[2,3-d]pyrimidin-4-ylamino)-thiophene-2-carboxylic acid (2-benzylamino-ethyl)-amide]
100 to 1000	O=C(NCCNCc1cccnc1)c1sccc1Nc1ccnc2[nH]ccc12 [Example 61, 3-(1H-Pyrrolo[2,3-b]pyridin-4-ylamino)-thiophene-2-carboxylic acid {2-[(pyridin-3-ylmethyl)-amino]-ethyl}-amide]
< 100	O=C(N[C@H](CN1C(=O)c2ccccc2C1=O)c1ccccc1)c1sccc1Nc1ccnc2[nH]ccc12 [Example 135, (S)-2-(1H-Pyrrolo[2,3-b]pyridin-4-ylamino)-thiophene-3-carboxylic acid[2-(1,3-dioxo-1,3-dihydro-isoindol-2-yl)-1-phenyl-ethyl]-amide]
< 100	CCNc1cc(C(=O)Nc2cccc(CNC(=O)c3sccc3Nc3ccnc4[nH]ccc34)c2)ccn1 [Example 165, 2-Ethylamino-N-[3-({[3-(1H-pyrrolo[2,3-b]pyridin-4-ylamino)-thiophene-2-carbonyl]-amino}-methyl)-phenyl]-isonicotinamide]
< 100	O=C(NCCNCc1ccccn1)c1sccc1Nc1ccnc2[nH]ccc12 [Example 41, 3-(1H-Pyrrolo[2,3-b]pyridin-4-ylamino)-thiophene-2-carboxylic acid {2-[(pyridin-2-ylmethyl)-amino]-ethyl}-amide]
< 100	O=C(Nc1cccc(CNC(=O)c2sccc2Nc2ccnc3[nH]ccc23)c1)c1ccnc(N2CCOCC2)c1 [Example 164, 2-Morpholin-4-yl-N-[3-({[3-(1H-pyrrolo[2,3-b]pyridin-4-ylamino)-thiophene-2-carbonyl]-amino}-methyl)-phenyl]-isonicotinamide]
< 100	Cc1ccc(CNCCNC(=O)c2sccc2Nc2ccnc3[nH]ccc23)cc1 [Example 136, 3-(1H-Pyrrolo[2,3-b]pyridin-4-ylamino)-thiophene-2-carboxylic acid [2-(4-methyl-benzylamino)-ethyl]-amide]
< 100	Cc1cccc(CNCCNC(=O)c2sccc2Nc2ccnc3[nH]ccc23)c1 [Example 56, 3-(1H-Pyrrolo[2,3-b]pyridin-4-ylamino)-thiophene-2-carboxylic acid [2-(3-methyl-benzylamino)-ethyl]-amide]
100 to 1000	O=C(N[C@@H](CO)Cc1ccccc1)c1ccsc1Nc1ccnc2[nH]ccc12 [Example 119, 2-(1H-Pyrrolo[2,3-b]pyridin-4-ylamino)-thiophene-3-carboxylic acid ((R)-1-hydroxymethyl-2-phenyl-ethyl)-amide]
< 100	O=C(N[C@H](CN1C(=O)c2ccccc2C1=O)c1ccccc1)c1ccsc1Nc1ccnc2[nH]ccc12 [Example 134, (S)-[3-(1H-Pyrrolo[2,3-b]pyridin-4-ylamino)-thiophene-2-carboxylic acid[2-(1,3-dioxo-1,3-dihydro-isoindol-2-yl)-1-phenyl-ethyl]-amide]]
< 100	NCCNC(=O)c1sccc1Nc1ccnc2[nH]ccc12 [Example 42, 3-(1H-Pyrrolo[2,3-b]pyridin-4-ylamino)-thiophene-2-carboxylic acid (2-amino-ethyl)-amide]
< 100	O=C(NCCNCc1ccsc1)c1sccc1Nc1ccnc2[nH]ccc12 [Example 46, 3-(1H-Pyrrolo[2,3-b]pyridin-4-ylamino)-thiophene-2-carboxylic acid {2-[(thiophen-3-ylmethyl)-amino]-ethyl}-amide]
< 100	Nc1cccc(CNC(=O)c2ccsc2Nc2ccnc3[nH]ccc23)c1 [Example 111, 2-(1H-Pyrrolo[2,3-b]pyridin-4-ylamino)-thiophene-3-carboxylic acid 3-amino-benzylamide]
< 100	O=C(NCCOCc1ccccc1)c1sccc1Nc1ccnc2[nH]ccc12 [Example 68, 3-(1H-Pyrrolo[2,3-b]pyridin-4-ylamino)-thiophene-2-carboxylic acid (2-benzyloxy-ethyl)-amide]
100 to 1000	O=C(c1sccc1Nc1ccnc2[nH]ccc12)N1CCCC1 [Example 4, Pyrrolidin-1-yl-[3-(1H-pyrrolo[2,3-b]pyridin-4-ylamino)-thiophen-2-yl]-methanone]
100 to 1000	CC(C)(C)OC(=O)N1CCC(NC(=O)c2ccsc2Nc2ccnc3[nH]ccc23)C1 (stereo not shown) [Example 102, 3-{[2-(1H-Pyrrolo[2,3-b]pyridin-4-ylamino)-thiophene-3-carbonyl]-amino}-pyrrolidine-1-carboxylic acid tert-butyl ester]
1000 to 10000	O=C(N[C@@H](CO)Cc1ccccc1)c1sccc1Nc1ccnc2[nH]ccc12 [Example 81, 3-(1H-Pyrrolo[2,3-b]pyridin-4-ylamino)-thiophene-2-carboxylic acid ((R)-1-benzyl-2-hydroxy-ethyl)-amide]
100 to 1000	Cc1cccc(CN(CCNC(=O)c2sccc2Nc2ccnc3[nH]ccc23)Cc2cccc(C)c2)c1 [Example 55, 3-(1H-Pyrrolo[2,3-b]pyridin-4-ylamino)-thiophene-2-carboxylic acid {2-[bis-(3-methyl-benzyl)-amino]-ethyl}-amide]
< 100	NS(=O)(=O)c1ccc(CCNC(=O)c2sccc2Nc2ccnc3[nH]ccc23)cc1 [Example 14, 3-(1H-Pyrrolo[2,3-b]pyridin-4-ylamino)-thiophene-2-carboxylic acid [2-(4-sulfamoyl-phenyl)-ethyl]-amide]

From patent US9023847B2, “Azaheterocyclic compounds” (Merck Patent GmbH, priority 2009, dated 2015)
